Laboratory results as given in PubChem BioAssay AID2060605 (Molecular Pharmacology Branch, DTP, NCI, 2025).
“And” between values parts separate entries of the source, which are not always exact repeats. Equal values may be shown once.

Test system: 947758-054-R-J2-PDC spheroid growth, percent test/control
Assay: Anticancer human tumor 947758-054-R-J2-PDC patient-derived colon adenocarcinoma cell line growth inhibition [CLK]
Conditions: spheroids with HUVEC and MSC; for viability, T/C: stronger effect = lower value
How it was run: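 Patient-derived tumor cells grown as complex spheroids with HUVEC endothelial cells and mesenchymal stem cells, treated with drug combinations. Concentrations descend in half-log steps from near clinical Cmax, or from 10 microM if Cmax unknown.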
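Further: spheroids exposed to compounds for one week before readout.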
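Wherever viability, T/C is given: 100% = DMSO vehicle control wells.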

CC(=O)O[C@H]1C(=O)[C@@]2(C)[C@H]([C@H](OC(=O)c3ccccc3)[C@]3(O)C[C@H](OC(=O)[C@H](O)[C@@H](NC(=O)c4ccccc4)c4ccccc4)C(C)=C1C3(C)C)[C@]1(OC(C)=O)CO[C@@H]1C[C@@H]2O
viability, T/C (compound 0.0316 µM): 7.6% and 8.82% | viability, T/C (compound 0.1 µM): 6.29% and 6.22% | viability, T/C (compound 0.316 µM): 5.41% and 6.88% | viability, T/C (compound 1 µM): 5.07% and 6.19% | viability, T/C (compound 3.16 µM): 6.6% and 8.41% | viability, T/C (compound 10 µM): 11.7% and 13.7% | IC50 (curve of compound): < 31.6 nM

NC(=O)C(=Cn1cnc(-c2cc(C(F)(F)F)cc(C(F)(F)F)c2)n1)c1cncnc1 + CNC(=O)c1ccc(Nc2nc(OC3CCCC3)c3c(-c4ccc5nc(C)oc5c4)c[nH]c3n2)c(OC)c1
IC50 (curve of first compound, second compound 0.0316 µM): < 9.49 nM | IC50 (curve of first compound, second compound 0.1 µM): < 9.49 nM | IC50 (curve of first compound, second compound 0.316 µM): 11.2 nM | IC50 (curve of first compound, second compound 1 µM): < 9.49 nM | IC50 (curve of first compound, second compound 3.16 µM): < 9.49 nM | IC50 (curve of first compound, second compound 10 µM): < 9.49 nM | viability, T/C (second compound 0.0316 µM, first compound 0.00949 µM): 46.7% | viability, T/C (second compound 0.0316 µM, first compound 0.03 µM): 37.3% | viability, T/C (second compound 0.0316 µM, first compound 0.0949 µM): 34.4% | viability, T/C (second compound 0.0316 µM, first compound 0.3 µM): 33.6% | viability, T/C (second compound 0.0316 µM, first compound 0.949 µM): 8.62% | viability, T/C (second compound 0.0316 µM, first compound 3 µM): 2.27% | viability, T/C (second compound 0.1 µM, first compound 0.00949 µM): 45.2% | viability, T/C (second compound 0.1 µM, first compound 0.03 µM): 32.4% | viability, T/C (second compound 0.1 µM, first compound 0.0949 µM): 25.6% | viability, T/C (second compound 0.1 µM, first compound 0.3 µM): 22.8% | viability, T/C (second compound 0.1 µM, first compound 0.949 µM): 4.68% | viability, T/C (second compound 0.1 µM, first compound 3 µM): 0.78% | viability, T/C (second compound 0.316 µM, first compound 0.00949 µM): 53.1% | viability, T/C (second compound 0.316 µM, first compound 0.03 µM): 32.4% | viability, T/C (second compound 0.316 µM, first compound 0.0949 µM): 15.1% | viability, T/C (second compound 0.316 µM, first compound 0.3 µM): 11.8% | viability, T/C (second compound 0.316 µM, first compound 0.949 µM): 3.26% | viability, T/C (second compound 0.316 µM, first compound 3 µM): 0.42% | viability, T/C (second compound 1 µM, first compound 0.00949 µM): 25.9% | viability, T/C (second compound 1 µM, first compound 0.03 µM): 20.6% | viability, T/C (second compound 1 µM, first compound 0.0949 µM): 12% | viability, T/C (second compound 1 µM, first compound 0.3 µM): 3.56% | viability, T/C (second compound 1 µM, first compound 0.949 µM): 1.32% | viability, T/C (second compound 1 µM, first compound 3 µM): 0.36% | viability, T/C (second compound 3.16 µM, first compound 0.00949 µM): 20.4% | viability, T/C (second compound 3.16 µM, first compound 0.03 µM): 16.3% | viability, T/C (second compound 3.16 µM, first compound 0.0949 µM): 10.9% | viability, T/C (second compound 3.16 µM, first compound 0.3 µM): 1.11% | viability, T/C (second compound 3.16 µM, first compound 0.949 µM): 0.26% | viability, T/C (second compound 3.16 µM, first compound 3 µM): 0.36% | viability, T/C (second compound 10 µM, first compound 0.00949 µM): 15.3% | viability, T/C (second compound 10 µM, first compound 0.03 µM): 13.7% | viability, T/C (second compound 10 µM, first compound 0.0949 µM): 5.14% | viability, T/C (second compound 10 µM, first compound 0.3 µM): 0.42% | viability, T/C (second compound 10 µM, first compound 0.949 µM): 0.28% | viability, T/C (second compound 10 µM, first compound 3 µM): 0.34%

COc1ccc([C@@H](O)c2cc(-c3ncnc4cc(N5CCOCC5)ccc34)c(F)cc2Cl)nn1
viability, T/C (compound 0.0316 µM): 72.8% and 98.3% | viability, T/C (compound 0.1 µM): 69.7% and 91.4% | viability, T/C (compound 0.316 µM): 86.8% and 105% | viability, T/C (compound 1 µM): 108% and 82.2% | viability, T/C (compound 3.16 µM): 97.9% and 117% | viability, T/C (compound 10 µM): 65.9% and 83.9% | IC50 (curve of compound): > 10000 nM
